From US20050038102A1, “Upregulation of type III endothelial cell Nitric Oxide Synthase by HMG-CoA reductase inhibitors” (BRIGHAM AND WOMENS HOSPITAL, priority 1997, published 2005)

How the values were obtained:
[1] = test system: wild type mice; experiment: Regional cerebral blood flow by laser-Doppler flowimetry, wild type and simvastatin-treated mice; type: in vivo
Description: (§1) Regional cerebral blood flow (rCBF) was monitored by laser-Doppler flowimetry in groups of urethane-anesthetized, ventilated mice. Additional physiological variables were also monitored in the mice, including mean arterial blood pressure (MABP), heart rate, blood pH, PaO2, and PaCO2.
(§2) FIG. 5 is a bar graph showing regional CBF changes in wild type and eNOS null mice for 40 min after L-arginine (450 mg/kg) or saline infusion at a constant rate of 100 microliter/kg/min over 15 min. The number of mice in each group is indicated in parenthesis. Error bars denote standard error of the mean (SEM), and an asterisk (*) denotes statistically significant difference (P<0.05) compared with baseline control by one-way ANOVA followed by Fisher's protected least-squares difference test.
Error bars denote SEM and an asterisk (*) denotes statistically significant difference (P<0.05) compared with baseline control by one-way ANOVA followed by Fisher's protected least-squares difference test.

[2] = test system: eNOS null mice; experiment: Regional cerebral blood flow by laser-Doppler flowimetry, eNOS null mice; type: in vivo; settings: L-arginine 450 mg/kg, i.v., 40 minute recording period
Description: as §1, with “L-arginine infusion at 300 mg/kg, i.v., caused modest (10%) and variable elevations in regional cerebral blood flow (rCBF) after infusion in several preliminary experiments (n=4, data not shown). […] Regional” for “Regional”
as §2

[3] = test system: wildtype SV-129 mice; experiment: Murine model of cerebral vascular ischemia (MCA occlusion), wild-type; type: in vivo; settings: lovastatin treatment
From the text: The neurological motor deficit score improved in simvastatin-treated mice (n-18) by almost 2-fold compared to that of controls (n=12) (0.8±0.2 vs. 1.7±0.2, p<0.01).

[4] = test system: ecNOS; experiment: Assay for ecNOS activity (LNMA-inhibitable nitrite production); type: cell-based, human; settings: higher concentration
[5] = test system: ecNOS protein; experiment: Western blotting of ecNOS protein levels in endothelial cells; type: cell-based, human; settings: for increase in ecNOS protein levels / ecNOS expression / increase in ecNOS protein levels: 0.1 mmol/L alone
Description: Human endothelial cells were harvested from saphenous veins and cultured as described (15). For transfection studies, bovine aortic endothelial cells of less than 3 passages were cultured in a growth medium containing DMEM (Dulbecco's Modified Eagle's Medium), 5 mmol/L L-glutamine (Gibco), and 10% fetal calf serum (Hyclone Lot# 114577). For all experiments, the endothelial cells were placed in 10% lipoprotein-deficient serum (Sigma, Lot#26H9403 1) for 48 h prior to treatment conditions. […] Cellular viability as determined by cell count, morphology, and Trypan blue exclusion was maintained for all treatment conditions.
Cellular proteins were prepared and separated on SDS/PAGE as described (Liao, J K et al., J Biol Chem, 1995, 270:319-324.). Immunoblotting was performed using a murine monoclonal antibody to human ecNOS (1:400 dilution, Transduction Laboratories, Lexington, Ky.). Immunodetection was accomplished using a sheep anti-mouse secondary antibody (1:4000 dilution) and the enhanced chemiluminescence (ECL) kit (Amersham Corp., Arlington Heights, Ill.). Autoradiography was performed at 23° C. and the appropriate exposures were quantitated by densitometry.
Human endothelial cells were harvested from saphenous veins using Type II collagenase (Worthington Biochemical Corp., Freehold, N.J.) as previously described. Cells of less than three passages were grown to confluence in a culture medium containing Medium 199, 20 mM HEPES, 50 mg/ml ECGS (Collaborative Research Inc., Bedford, Mass.), […] heparin sulfate, 5 mM L-glutamine (Gibco), 5% fetal calf serum (Hyclone, Logan, Utah), and antibiotic mixture of penicillin (100 U/ml)/ streptomycin ([…])/Fungizone (1.25 mg/ml). For all experiments, the endothelial cells were grown to confluence before any treatment conditions. In some experiments, cells were pretreated with actinomycin D (5 mg/ml) for 1 h prior to treatment with HMG-CoA reductase inhibitors. […]

[6] = test system: ecNOS mRNA; experiment: ecNOS mRNA half-life in the presence of actinomycin D; type: cell-based, human
[7] = test system: ecNOS mRNA; experiment: Quantitative RT-PCR of ecNOS mRNA in mouse aortae and brains; type: in vivo, mice
[8] = test system: human endothelial cell
[9] = 1 mmol/L alone (concentration series), 48 h
[10] = 10 mmol/L alone (concentration series), 48 h

N=C(N)NCCC[C@H](N)C(=O)O [L-arginine]
elevation in regional cerebral blood flow (rCBF) ([1]; L-arginine 300 mg/kg, i.v., preliminary experiments): 10% | time at which increase in rCBF began ([1]; L-arginine 450 mg/kg, i.v., wild type mice): 5 to 10 min | maximum increase in rCBF above baseline ([1]; L-arginine 450 mg/kg, i.v., wild type mice, at 20-25 min): 26% | additional time for which rCBF increases were sustained ([1]; L-arginine infusion in simvastatin-treated mice): 20 min | maximum increase in rCBF over simvastatin baseline ([1]; L-arginine infusion in simvastatin-treated mice, at 15-20 min): 29-31% | rCBF change [2]: −4 to +5%

CC[C@H](C)C(=O)O[C@H]1C[C@@H](C)C=C2C=C[C@H](C)[C@H](CC[C@@H]3C[C@@H](O)CC(=O)O3)[C@H]21 [lovastatin]
reduction of cerebral infarct size [3]: also occurred with lovastatin treatment, albeit at higher relative concentrations | concentration needed for similar findings, compared to that of simvastatin [4]: 10 fold | increase in ecNOS protein levels / ecNOS expression ([5]; 48 h): 10% | increase in ecNOS expression [5, 9]: 105% | increase in ecNOS expression [5, 10]: 180% | potency in upregulating ecNOS protein levels, less potent than simvastatin ([5]; equimolar concentrations): 10 fold | effect on ecNOS expression ([5]; not chemically-activated): had no effect on ecNOS expression

CCC(C)(C)C(=O)O[C@H]1C[C@@H](C)C=C2C=C[C@H](C)[C@H](CC[C@@H]3C[C@@H](O)CC(=O)O3)[C@H]21 [simvastatin]
increase in baseline rCBF ([1]; chronic daily administration of simvastatin alone): 25% | increase in ecNOS expression ([5]; 0.01 mmol/L alone (series 0.01 to 10 mmol/L), 48 h): 1% | increase in ecNOS protein levels ([5]; 12 h): 4% | increase in ecNOS protein levels ([5]; 24 h): 21% | increase in ecNOS protein levels / ecNOS expression ([5]; 48 h): 80% | increase in ecNOS protein levels ([5]; 72 h): 90% | increase in ecNOS protein levels ([5]; 84 h): 95% | increase in ecNOS expression [5, 9]: 190% | increase in ecNOS expression [5, 10]: 310% | decrease in ecNOS protein level ([5]; simvastatin 0.1 mmol/L + ox-LDL 50 mg/ml, 24 h): 15% | ecNOS protein levels increased above basal expression ([5]; simvastatin 0.1 mmol/L + ox-LDL 50 mg/ml, 72 h): 110% | ecNOS protein levels increased above basal expression ([5]; simvastatin 0.1 mmol/L + ox-LDL 50 mg/ml, 96 h): 124% | ecNOS expression above basal expression ([5]; simvastatin 1 mmol/L + ox-LDL 50 mg/ml (TBARS 15.1 nmol/mg), 48 h): 150% | ecNOS protein levels above baseline ([5]; simvastatin 10 mmol/L + ox-LDL 50 mg/ml, 48 h): 210%±12% | half-life of ecNOS mRNA (t½) ([6]; simvastatin 0.1 mmol/L + ox-LDL): 22 ± 3 h | half-life of ecNOS mRNA (t½) ([6]; simvastatin alone): 43 ± 4 h | increase in ecNOS expression in infarcted, ipsilateral hemisphere compared to contralateral side ([7]; simvastatin 2 mg/kg, 14 days, brain, with respect to GAPDH mRNA): 1.5-to 2 fold | increase of ecNOS message compared to that of GAPDH, aortae ([7]; simvastatin-treated mice, dose-dependent): 3 fold

L-mevalonate
reduction of ecNOS protein compared to cells treated with ox-LDL and simvastatin ([5]; addition of L-mevalonate 100 mmol/L to ox-LDL + simvastatin 1 mmol/L): 50%±5% | observable adverse effects on cellular morphology [8]: no observable adverse effects
